Assay type in all cases: cell-based
For one series, the system named is SH-SY5Y. In words: Cytotoxicity against human SH-SY5Y cells at 10 to 100 uM after 24 hrs by MTT assay.
Series [1] deals with T1, Low-density lipoprotein receptor-related protein 6 (Homo sapiens, UniProt O75581). The series can be described thus: Binding affinity to human LRP6 expressed in HEK293 cells assessed as inhibition of DKK1/LRP6 interaction using compound pre-treated DKK1 conditioned media after 2 hrs by fluorescence microscopic analysis.
Series [2] addresses T1, Low-density lipoprotein receptor-related protein 6. The series can be described thus: Binding affinity to LRP6 in human SH-SY5Y cells assessed as DKK1/LRP6 interaction-mediated increase in beta-catenin level at 10 uM incubated for 1 hr using compound pre-treated DKK1 conditioned media by Western blot analysis. (Immunoblotting shows a protein as a band on a membrane.)
The target is the same in series [3]. In words: Binding affinity to LRP6 in human SH-SY5Y cells assessed as inhibition of DKK1/LRP6 interaction-mediated tau phosphorylation at serine 396 at 10 uM incubated for 1 hr using compound pre-treated DKK1 conditioned media by Western blot analysis.

The source made the active and inactive calls. The rule behind the calls is not given here.

T1 sequence (O75581 whole entry): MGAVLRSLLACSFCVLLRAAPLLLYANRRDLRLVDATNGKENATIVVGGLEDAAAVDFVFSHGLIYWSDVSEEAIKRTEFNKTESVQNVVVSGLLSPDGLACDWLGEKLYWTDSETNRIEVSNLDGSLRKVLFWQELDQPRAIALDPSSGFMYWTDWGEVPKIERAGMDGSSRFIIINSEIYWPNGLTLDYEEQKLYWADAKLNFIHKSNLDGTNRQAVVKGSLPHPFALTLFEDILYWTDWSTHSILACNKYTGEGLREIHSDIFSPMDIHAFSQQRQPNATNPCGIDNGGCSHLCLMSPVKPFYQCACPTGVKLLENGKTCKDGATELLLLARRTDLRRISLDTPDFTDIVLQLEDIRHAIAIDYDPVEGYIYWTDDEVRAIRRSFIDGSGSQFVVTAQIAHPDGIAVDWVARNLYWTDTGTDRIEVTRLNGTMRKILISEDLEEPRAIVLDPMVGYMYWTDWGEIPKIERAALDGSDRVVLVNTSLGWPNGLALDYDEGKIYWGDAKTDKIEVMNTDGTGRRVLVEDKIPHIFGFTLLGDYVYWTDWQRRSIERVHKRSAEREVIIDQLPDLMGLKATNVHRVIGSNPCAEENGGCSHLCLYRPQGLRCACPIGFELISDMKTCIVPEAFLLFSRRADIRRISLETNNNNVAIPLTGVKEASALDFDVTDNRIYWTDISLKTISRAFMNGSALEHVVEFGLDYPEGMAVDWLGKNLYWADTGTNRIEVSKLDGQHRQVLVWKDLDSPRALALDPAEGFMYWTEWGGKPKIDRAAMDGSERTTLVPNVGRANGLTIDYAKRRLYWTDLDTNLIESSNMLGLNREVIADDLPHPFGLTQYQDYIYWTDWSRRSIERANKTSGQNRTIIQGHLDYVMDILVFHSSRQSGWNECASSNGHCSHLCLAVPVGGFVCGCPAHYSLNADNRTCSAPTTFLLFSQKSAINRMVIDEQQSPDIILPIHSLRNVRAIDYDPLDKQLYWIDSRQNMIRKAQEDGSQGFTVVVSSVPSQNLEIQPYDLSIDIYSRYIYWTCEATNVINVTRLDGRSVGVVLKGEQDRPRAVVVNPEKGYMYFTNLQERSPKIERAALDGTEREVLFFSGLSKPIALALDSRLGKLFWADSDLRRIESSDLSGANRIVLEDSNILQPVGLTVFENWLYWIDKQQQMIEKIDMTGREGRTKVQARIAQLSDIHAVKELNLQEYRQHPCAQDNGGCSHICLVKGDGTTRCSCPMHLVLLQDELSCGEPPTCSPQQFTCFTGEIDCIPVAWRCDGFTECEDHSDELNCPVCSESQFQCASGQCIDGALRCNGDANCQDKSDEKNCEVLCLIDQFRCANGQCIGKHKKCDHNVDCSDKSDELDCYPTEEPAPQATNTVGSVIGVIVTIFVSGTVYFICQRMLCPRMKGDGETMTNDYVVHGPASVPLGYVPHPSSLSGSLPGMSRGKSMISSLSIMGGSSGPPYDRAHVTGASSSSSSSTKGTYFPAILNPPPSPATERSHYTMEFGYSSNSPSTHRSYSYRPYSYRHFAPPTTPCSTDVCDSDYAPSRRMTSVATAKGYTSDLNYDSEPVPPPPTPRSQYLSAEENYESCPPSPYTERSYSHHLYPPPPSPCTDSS

In the case of `COC(=O)c1c2nc3ccc(N(C)C)cc3oc-2c(O)c(=O)c1NC1CCCCC1`, the Activity entry in the series with SH-SY5Y is “Non-toxic”. Further, in series [1], the IC50 – broadly, the concentration that inhibits the measured activity by half – turned out to be 4.06 µM. Further, the inhibition entry in series [2] is “Active”.
`COC(=O)c1c2nc3ccc(N(C)C)cc3oc-2c(O)c(=O)c1Nc1ccc(Cl)c(Cl)c1`: the inhibition entry in series [3] and in series [2] was “Active” each time. The Activity entry in the series with SH-SY5Y is listed as “Non-toxic”. In addition, in series [1], the 50% inhibitory concentration (IC50) turned out to be 4.87 µM.
On to `COC(=O)c1c2nc3ccc(N(C)C)cc3oc-2c(O)c(=O)c1Nc1ccc(OC)cc1`, for which, in the series on SH-SY5Y, the Activity entry is reported as “Non-toxic”. Moreover, the IC50 in series [1] amounted to 4.71 µM. In addition, in series [2], the inhibition entry was “Active”.
With `COC(=O)c1c2nc3ccc(N(C)C)cc3oc-2c(O)c(=O)c1N1CCCCC1`, the inhibition result in series [3] and in series [2] was “Active” throughout. Further, the Activity entry with SH-SY5Y is “Non-toxic”. In series [1], the half-inhibitory concentration (IC50) came out at 5.5 µM.
Take `COC(=O)c1c2nc3ccc(N(C)C)cc3oc-2c(O)c(=O)c1NCc1ccc(OC)cc1`: the Activity result in the series on SH-SY5Y is reported as “Non-toxic”. In series [1], the IC50 amounted to 4.33 µM. In series [2], the inhibition entry was “Active”.
In the same order, the values of `COC(=O)c1c2nc3ccc(N(C)C)cc3oc-2c(O)c(=O)c1NC1CCCC1` are “Non-toxic”, 4.61 µM and “Active”.
In the same order, the values of `COC(=O)c1c2nc3ccc(N(C)C)cc3oc-2c(O)c(=O)c1Nc1ccccc1` are “Non-toxic”, 6.16 µM and “Active”.
Consider `COC(=O)c1c2nc3ccc(N(C)C)cc3oc-2c(O)c(=O)c1N1CCOCC1`, for which the Activity entry with SH-SY5Y was “Non-toxic”. The IC50 in series [1] amounted to 3.74 µM. Also, in series [2], the inhibition entry is “Active”.
As for `CCCCOC(=O)c1c2nc3ccc(N(C)C)cc3oc-2c(O)c(=O)c1NCc1ccc(OC)cc1`, the Activity result with SH-SY5Y is given as “Non-toxic”. The IC50 in series [1] is 3.38 µM. Besides, the inhibition entry in series [2] is “Active”.
Turning to `COC(=O)c1c2nc3ccc(N(C)C)cc3oc-2c(O)c(=O)c1N`, the inhibition entry in series [3] and in series [2] was “Active” in each case. Moreover, the Activity entry with SH-SY5Y is reported as “Non-toxic”. Further, the half-maximal inhibitory concentration (IC50) in series [1] was 5.23 µM.
With `COC(=O)c1c2nc3ccc(N(C)C)cc3oc-2c(O)c(=O)c1Nc1ccc(C)cc1`, the Activity result in the series with SH-SY5Y is “Non-toxic”. In addition, in series [1], the half-inhibitory concentration (IC50) is 3.77 µM. Also, the inhibition entry in series [2] was “Active”.

Source of the values: ChEMBL document CHEMBL3763125, “Discovery of novel phenoxazinone derivatives as DKK1/LRP6 interaction inhibitors: Synthesis, biological evaluation and structure-activity relationships” (Bioorg Med Chem, 2016).
